Consider one compound from patent publication US20090068687A1, “Screening platform for discovery of immunomodulatory activities in traditional medicine” (The Hong Kong Polytechnic University, priority 2004, published 2009).

Format in all cases: cell-based, rat
Assay [1] concerns TNF-α. Briefly: ELISA of TNF-α secretion from splenocytes with and without Rg1. On the procedure:
(§1) Rats were placed under deep ether anesthesia and exsanguinated via the abdominal aorta. Spleen was removed by aseptic techniques before washed twice in 10 mL of RPMI-1640 (Gibco, U.S.A.) medium containing 1000 U/mL penicillin-streptomycin (PS) (Gibco, U.S.A.). Spleens were then cut into small pieces before being sucked up and down with a plunger in a plastic syringe. Single cell suspension was prepared and placed into the same medium containing 1000 U/mL PS, and 5% acid citric dextrose. Splenocytes were then isolated by gradient centrifugation by layering the single cell suspension onto Ficoll-Paque Plus gradient (Amersham Bioscience, H.K. Ltd.) and spun at 400 g for 35 minutes at room temperature. The splenocytes-containing fraction was collected. Erythrocytes were lyzed by adding four volumes of ice-cold ammonium chloride solution (pH 7.4) at room temperature for 5 minutes and splenocytes were washed twice in plain medium. […]
(§2) IFN-γ as well as TNF-α ELISA assays were performed using the OptiEIATM rat IFN-γ and TNF-α kits (Pharmigen, U.S.A.). […] After the addition of avidin-HRP conjugate, color was developed by the addition of 2,2-Azin-bis-3-thylbenzthiazoline-6-sulfonic acid and the color change was monitored at an absorbance of 405 nm with a Microplate Reader (Bio-Rad Laboratories, U.S.A.) The amount of INF-γ and TNF-α were calculated by comparing with the standard.

Assay [2] has as its system IFN-γ. Briefly: ELISA of IFN-γ secretion from splenocytes with and without Rg1. On the procedure: as §1, §2
Assay [3] has as its system TNF-α. The assay can be described thus: Western blotting of TNF-α secretion in culture medium of Rg1-stimulated splenocytes. Conditions: 5 μg/ml Rg1, culture medium. On the procedure:
as §1, with “collected.” for “collected. Erythrocytes were lyzed by adding four volumes of ice-cold ammonium chloride solution (pH 7.4) at room temperature for 5 minutes and splenocytes were washed twice in plain medium.”
(§3) Supernatants of splenocytes cell culture with and without Rg1 incubation were harvested at different time points and used for the detection of TNF-α and IFN-γ. […] The protein content of the supernatant/lysate was determined by the Bradford method (Bio-Rad Laboratory, U.S.A.). For each analysis, 350 μg of protein was analyzed by a 12.5% reducing SDS-PAGE gel ran at a constant voltage (150V) for 1 hour. […] Positive binding was detected using the SuperSignal West Pico Chemiluminescent Kit (Pierce, U.S.A.) and the exposed X-ray films (Kodak) were scanned with a Molecular Dynamics Densitometer (Bio-Rad Laboratories, U.S.A.).

The next assay deals with iNOS. The assay can be described thus: Western blotting of iNOS expression in splenocyte lysate after Rg1 stimulation. The following applies: 5 μg/ml Rg1, splenocyte lysate. On the procedure: as §1, with “collected.” for “collected. Erythrocytes were lyzed by adding four volumes of ice-cold ammonium chloride solution (pH 7.4) at room temperature for 5 minutes and splenocytes were washed twice in plain medium.”
as §3

Assay [4] has as its system IFN-γ. The assay can be described thus: Western blotting of IFN-γ secretion in culture medium of Rg1-stimulated splenocytes. The following applies: 5 μg/ml Rg1, culture medium, 24 hour. On the procedure: as §1, with “collected.” for “collected. Erythrocytes were lyzed by adding four volumes of ice-cold ammonium chloride solution (pH 7.4) at room temperature for 5 minutes and splenocytes were washed twice in plain medium.”
as §3

The next assay concerns splenocytes. Briefly: 2-DE (Two-in-one gel) / MALDI-TOF MS analysis of differential protein expression in splenocyte lysates. On the procedure:
Rats were placed under deep ether anesthesia and exsanguinated via the abdominal aorta. Spleen was removed by aseptic techniques before washed twice in 10 mL of RPMI-1640 (Gibco, U.S.A.) medium containing 1000 U/mL penicillin-streptomycin (PS) (Gibco, U.S.A.). Spleens were then cut into small pieces before being sucked up and down with a plunger in a plastic syringe. Single cell suspension was prepared and placed into the same medium containing 1000 U/mL PS, and 5% acid citric dextrose. Splenocytes were then isolated by gradient centrifugation by layering the single cell suspension onto Ficoll-Paque Plus gradient (Amersham Bioscience, H.K. Ltd.) and spun at 400 g for 35 minutes at room temperature. The splenocytes-containing fraction was collected. Erythrocytes were lyzed by adding four volumes of ice-cold ammonium chloride solution (pH 7.4) at room temperature for 5 minutes and splenocytes were washed twice in plain medium. Lymphocytes were stained with Wright-Giema stain before examination under light microscope. Cell viability and number were examined after trypan blue staining under the light microscope. Splenocytes (1×10^6) were cultured in complete RPMI-1640 medium containing 1000 U/mL PS, supplemented with 2 g/L sodium carbonate. Cells were re-suspended in the same medium with 10% FCS (Gibco, U.S.A.) and subjected to various treatments after 24 hours incubation.
Rg1 (dosage of 5 μg/mL) was added to splenocytes in PBS buffer in 6-well flat-bottomed plates (Nunc Maxisorp, U.S.A.) in a 5% CO2 incubator at 37° C. Samples of conditioned media from the incubation mixture were harvested at varying time points (from 12-72 hours). These samples were kept at −80° C. until use. No sample was kept for more than 2 months. Besides Western Blotting, global protein expression in samples of Rg1 treated splenocytes (at 12 hours and 24 hours intervals) were also performed using 2-DE analysis. Cells incubated with PBS for 24 hours were used as control.
Splenocytes on culture dishes were rinsed once with RPMI-1640 after incubation with or without Rg1. Subsequently, […] trypsin containing 0.2 g/L EDTA was added and allowed to incubate for 3 min. Cells were then collected by centrifugation at 1,000 g for 5 minutes and washed with PBS (pH 7.2) twice. Splenocytes were then lysed with a minimal amount of lysis buffer (usually 200 μl) containing 4% Triton X-100, 9 M urea, and 1 mM PMSF for 10 minutes on ice. The supernatant was collected by centrifugation at 3,000 g for 10 minutes and protein contents were measured by a modified Bradford method using a protein assay kit by Bio-Rad Laboratories, U.S.A. Cell lysates from different animals with the same treatment were pooled together at a protein ratio of 1:1 and was used for 2-DE analysis. 120 μg of splenocytes lysate [in a buffer containing 9M Urea, 2% w/v Triton X-100, 0.5% w/v DDT (Sigma, U.S.A.), 0.4% v/v IPG buffer 4-7 (Amersham Pharmacia Biotech, Uppsala, Sweden) and trace amount of bromophenol blue to a final volume of 300 μl] was used for in-gel sample rehydration.
Samples were applied onto IPG strips pH 4-7 (3×170 mm, Bio-Rad Laboratories, U.S.A.). Rehydration and subsequent isoelectric focusing was performed using either a Protean IEF Cell (Bio-Rad Laboratories, U.S.A.) or an IPGphor (Amersham Biosciences, U.S.A.). Rehydration was performed at room temperature for 16 hour at 50 V in the IPG strip holder covered with low viscosity paraffin oil. Isoelectric focusing was then performed using 500 V (1 hour), 1000 V (1 hour), 4000 V (2 hour) and 8000 V (2 hour) sequentially. Strips were then equilibrated in […] Tris-HCl equilibration buffer, pH 6.8, containing 1% (w/v) DTT (Sigma, U.S.A.), 9M urea, 30% v/v glycerol, 2% w/v SDS and a trace amount of bromophenol blue for 10 minutes. […]

Setting [5] is: 5 μg/mL Rg1, ELISA time course 12-72 hours.
[6] abbreviates: 5 μg/mL Rg1, ELISA, versus splenocytes without Rg1.
[7] abbreviates: Rg1 24 hours versus PBS control.
The mark [8] stands for this setting: Rg1 treated versus normal sample, Two-in-one gels.

Regarding `CC(C)=CCC[C@](C)(O[C@@H]1O[C@H](CO)[C@@H](O)[C@H](O)[C@H]1O)[C@H]1CC[C@]2(C)[C@@H]1[C@H](O)C[C@@H]1[C@@]3(C)CC[C@H](O)C(C)(C)[C@@H]3[C@@H](O[C@@H]3O[C@H](CO)[C@@H](O)[C@H](O)[C@H]3O)C[C@]12C` [Rg1], the “incubation time at which TNF-α level reached a maximum” value with TNF-α [1] (setting [5]) was found to be 24 h. Also, the “increase in quantity of TNF-α after Rg1 induction” value in the assay with TNF-α [1] (setting [6]) was “more than 1000 fold”. Also, the “incubation time at which IFN-γ level reached a maximum” value in the assay on IFN-γ [2] (setting [5]) stood at 24 h. In addition, the “increase in quantity of IFN-γ after Rg1 induction” value in the assay on IFN-γ [2] (setting [6]) is listed as “more than 1000 fold”. In addition, the “TNF-α detection by Western blotting” value in the assay with TNF-α [3] (24 hour) is recorded as “detected”. Further, in the assay with TNF-α [3] (48 hour), the “TNF-α detection by Western blotting” value is “detected”. In addition, the “iNOS detection by Western blotting” value in the assay with iNOS (12 hour) is reported as “detected”. The “iNOS detection by Western blotting” value in the assay with iNOS (24 hour) is “detected”. In the assay on IFN-γ [4], the “IFN-γ detection by Western blotting” value is “detected”. Also, in the assay on splenocytes (24 hours incubation with Rg1, about 102 spots in normal sample), the “number of protein spots detected on the gel half run with the Rg1 treated sample” value is given as 122. In the assay with splenocytes (setting [7]), the “Regulation of Alpha-mannosidase II (spot 6)” value is reported as “Up-”, the “Regulation of Cytochrome C oxidase polypeptide IV precursor (spot 2)” value was “Up-”, the “Regulation of DNA polymerase beta (spot 3)” value is reported as “Up-” and the “Regulation of Guanine nucleotide-binding protein G (spot 4)” value is “Up-”. For the same compound, in the assay on splenocytes (setting [7]), the “Regulation of Homeotic protein LH-2 (spot 1)” value was “Up-” and the “Regulation of T-cell surface glycoprotein CD5 precursor (spot 5)” value is “Up-”. Besides, in the assay with splenocytes (setting [8]), the “number of protein spots down-regulated” value is reported as 38, the “number of proteins up-regulated” value stood at 87 and the “number of spots without significant apparent changes” value is on record as 38.
